Legend:
CCRF-CEM = assay: Antitumor activity against human CCRF-CEM cells assessed as cell growth inhibition at 10 uM incubated for 48 hrs by sulforhodamine B assay; format: functional; conditions: read-out: GI
HL-60(TB) = assay: Antitumor activity against human HL-60(TB) cells assessed as cell growth inhibition at 10 uM incubated for 48 hrs by sulforhodamine B assay; format: functional; conditions: read-out: GI
K562 = assay: Antitumor activity against human K562 cells assessed as cell growth inhibition at 10 uM incubated for 48 hrs by sulforhodamine B assay; format: functional; conditions: read-out: GI
MOLT-4 = assay: Antitumor activity against human MOLT4 cells assessed as cell growth inhibition at 10 uM incubated for 48 hrs by sulforhodamine B assay; format: functional; conditions: read-out: GI
RPMI-8226 = assay: Antitumor activity against human RPMI8226 cells assessed as cell growth inhibition at 10 uM incubated for 48 hrs by sulforhodamine B assay; format: functional; conditions: read-out: GI
SR = assay: Antitumor activity against human SR cells assessed as cell growth inhibition at 10 uM incubated for 48 hrs by sulforhodamine B assay; format: functional; conditions: read-out: GI
EKVX = assay: Antitumor activity against human EKVX cells assessed as cell growth inhibition at 10 uM incubated for 48 hrs by sulforhodamine B assay; format: functional; conditions: read-out: GI
HOP-92 = assay: Antitumor activity against human HOP92 cells assessed as cell growth inhibition at 10 uM incubated for 48 hrs by sulforhodamine B assay; format: functional; conditions: read-out: GI
NCI-H226 = assay: Antitumor activity against human NCI-H226 assessed as cell growth inhibition at 10 uM incubated for 48 hrs by sulforhodamine B assay; format: functional; conditions: read-out: GI
NCI-H23 = assay: Antitumor activity against human NCI-H23 cells assessed as cell growth inhibition at 10 uM incubated for 48 hrs by sulforhodamine B assay; format: functional; conditions: read-out: GI
NCI-H460 = assay: Antitumor activity against human NCI-H460 assessed as cell growth inhibition at 10 uM incubated for 48 hrs by sulforhodamine B assay; format: functional; conditions: read-out: GI
NCI-H522 = assay: Antitumor activity against human NCI-H522 cells assessed as cell growth inhibition at 10 uM incubated for 48 hrs by sulforhodamine B assay; format: functional; conditions: read-out: GI
COLO 205 = assay: Antitumor activity against human COLO205 cells assessed as cell growth inhibition at 10 uM incubated for 48 hrs by sulforhodamine B assay; format: functional; conditions: read-out: GI
HCC 2998 = assay: Antitumor activity against human HCC2998 cells assessed as cell growth inhibition at 10 uM incubated for 48 hrs by sulforhodamine B assay; format: functional; conditions: read-out: GI
HCT-116 = assay: Antitumor activity against human HCT116 cells assessed as cell growth inhibition at 10 uM incubated for 48 hrs by sulforhodamine B assay; format: functional; conditions: read-out: GI
HCT-15 = assay: Antitumor activity against human HCT15 cells assessed as cell growth inhibition at 10 uM incubated for 48 hrs by sulforhodamine B assay; format: functional; conditions: read-out: GI
HT-29 = assay: Antitumor activity against human HT-29 cells assessed as cell growth inhibition at 10 uM incubated for 48 hrs by sulforhodamine B assay; format: functional; conditions: read-out: GI
KM12 = assay: Antitumor activity against human KM12 cells assessed as cell growth inhibition at 10 uM incubated for 48 hrs by sulforhodamine B assay; format: functional; conditions: read-out: GI
SF-268 = assay: Antitumor activity against human SF268 cells assessed as cell growth inhibition at 10 uM incubated for 48 hrs by sulforhodamine B assay; format: functional; conditions: read-out: GI
SF-295 = assay: Antitumor activity against human SF295 cells assessed as cell growth inhibition at 10 uM incubated for 48 hrs by sulforhodamine B assay; format: functional; conditions: read-out: GI
SNB-19 = assay: Antitumor activity against human SNB-19 cells assessed as cell growth inhibition at 10 uM incubated for 48 hrs by sulforhodamine B assay; format: functional; conditions: read-out: GI
SNB-75 = assay: Antitumor activity against human SNB-75 cells assessed as cell growth inhibition at 10 uM incubated for 48 hrs by sulforhodamine B assay; format: functional; conditions: read-out: GI
U-251 = assay: Antitumor activity against human U251 cells assessed as cell growth inhibition at 10 uM incubated for 48 hrs by sulforhodamine B assay; format: functional; conditions: read-out: GI
LOX IMVI = assay: Antitumor activity against human LOX IMVI cells assessed as cell growth inhibition at 10 uM incubated for 48 hrs by sulforhodamine B assay; format: functional; conditions: read-out: GI
Malme-3M = assay: Antitumor activity against human MALME-3M cells assessed as cell growth inhibition at 10 uM incubated for 48 hrs by sulforhodamine B assay; format: functional; conditions: read-out: GI
M14 = assay: Antitumor activity against human M14 cells assessed as cell growth inhibition at 10 uM incubated for 48 hrs by sulforhodamine B assay; format: functional; conditions: read-out: GI
MDA-MB-435 = assay: Antitumor activity against human MDA-MB-435 cells assessed as cell growth inhibition at 10 uM incubated for 48 hrs by sulforhodamine B assay; format: functional; conditions: read-out: GI
SK-MEL-28 = assay: Antitumor activity against human SK-MEL-28 cells assessed as cell growth inhibition at 10 uM incubated for 48 hrs by sulforhodamine B assay; format: functional; conditions: read-out: GI
UACC-62 = assay: Antitumor activity against human UACC-62 cells assessed as cell growth inhibition at 10 uM incubated for 48 hrs by sulforhodamine B assay; format: functional; conditions: read-out: GI
IGROV-1 = assay: Antitumor activity against human IGROV1 cells assessed as cell growth inhibition at 10 uM incubated for 48 hrs by sulforhodamine B assay; format: functional; conditions: read-out: GI
OVCAR-3 = assay: Antitumor activity against human OVCAR-3 cells assessed as cell growth inhibition at 10 uM incubated for 48 hrs by sulforhodamine B assay; format: functional; conditions: read-out: GI
OVCAR-4 = assay: Antitumor activity against human OVCAR-4 cells assessed as cell growth inhibition at 10 uM incubated for 48 hrs by sulforhodamine B assay; format: functional; conditions: read-out: GI
OVCAR-8 = assay: Antitumor activity against human OVCAR-8 cells assessed as cell growth inhibition at 10 uM incubated for 48 hrs by sulforhodamine B assay; format: functional; conditions: read-out: GI
NCI/ADR-RES = assay: Antitumor activity against human NCI/ADR-RES cells assessed as cell growth inhibition at 10 uM incubated for 48 hrs by sulforhodamine B assay; format: functional; conditions: read-out: GI
SK-OV-3 = assay: Antitumor activity against human SK-OV-3 cells assessed as cell growth inhibition at 10 uM incubated for 48 hrs by sulforhodamine B assay; format: functional; conditions: read-out: GI
786-0 = assay: Antitumor activity against human 786-0 cells assessed as cell growth inhibition at 10 uM incubated for 48 hrs by sulforhodamine B assay; format: functional; conditions: read-out: GI
A498 = assay: Antitumor activity against human A498 cells assessed as cell growth inhibition at 10 uM incubated for 48 hrs by sulforhodamine B assay; format: functional; conditions: read-out: GI
ACHN = assay: Antitumor activity against human ACHN cells assessed as cell growth inhibition at 10 uM incubated for 48 hrs by sulforhodamine B assay; format: functional; conditions: read-out: GI
RXF 393 = assay: Antitumor activity against human RXF 393 cells assessed as cell growth inhibition at 10 uM incubated for 48 hrs by sulforhodamine B assay; format: functional; conditions: read-out: GI
SN12C = assay: Antitumor activity against human SN12C cells assessed as cell growth inhibition at 10 uM incubated for 48 hrs by sulforhodamine B assay; format: functional; conditions: read-out: GI
UO-31 = assay: Antitumor activity against human UO-31 cells assessed as cell growth inhibition at 10 uM incubated for 48 hrs by sulforhodamine B assay; format: functional; conditions: read-out: GI
PC-3 = assay: Antitumor activity against human PC-3 cells assessed as cell growth inhibition at 10 uM incubated for 48 hrs by sulforhodamine B assay; format: functional; conditions: read-out: GI
MCF7 = assay: Antitumor activity against human MCF7 cells assessed as cell growth inhibition at 10 uM incubated for 48 hrs by sulforhodamine B assay; format: functional; conditions: read-out: GI
MDA-MB-231 = assay: Antitumor activity against human MDA-MB-231/ATCC cells assessed as cell growth inhibition at 10 uM incubated for 48 hrs by sulforhodamine B assay; format: functional; conditions: read-out: GI
Hs-578T = assay: Antitumor activity against human HS 578T cells assessed as cell growth inhibition at 10 uM incubated for 48 hrs by sulforhodamine B assay; format: functional; conditions: read-out: GI
BT-549 = assay: Antitumor activity against human BT-549 cells assessed as cell growth inhibition at 10 uM incubated for 48 hrs by sulforhodamine B assay; format: functional; conditions: read-out: GI
MDA-MB-468 = assay: Antitumor activity against human MDA-MB-468 cells assessed as cell growth inhibition at 10 uM incubated for 48 hrs by sulforhodamine B assay; format: functional; conditions: read-out: GI
SW-620 = assay: Antitumor activity against human SW620 cells assessed as cell growth inhibition at 10 uM incubated for 48 hrs by sulforhodamine B assay; conditions: SW-620, 48 h, read-out: GI

For `CCN(CC)c1ccc(-c2nc3c4ccccc4c4ccccc4c3[nH]2)c(O)c1`, the inhibition of growth at 10 µM (CCRF-CEM) was < 10%, the inhibition of growth at 10 µM (HL-60(TB)) was < 10% and the inhibition of growth at 10 µM (K562) was 20.5%. For the same compound, the inhibition of growth at 10 µM (MOLT-4) was < 10%, the inhibition of growth at 10 µM (RPMI-8226) was < 10% and the inhibition of growth at 10 µM (SR) was 15.8%. The inhibition of growth at 10 µM (EKVX) was 18.2%, the inhibition of growth at 10 µM (HOP-92) was 24.2% and the inhibition of growth at 10 µM (NCI-H226) was < 10%. For the same compound, the inhibition of growth at 10 µM (NCI-H23) was < 10%, the inhibition of growth at 10 µM (NCI-H460) was < 10% and the inhibition of growth at 10 µM (NCI-H522) was 10.4%. The inhibition of growth at 10 µM (COLO 205) was < 10%, the inhibition of growth at 10 µM (HCC 2998) was < 10% and the inhibition of growth at 10 µM (HCT-116) was < 10%. The inhibition of growth at 10 µM (HCT-15) was 13.8%, the inhibition of growth at 10 µM (HT-29) was < 10% and the inhibition of growth at 10 µM (KM12) was < 10%. The inhibition of growth at 10 µM (SF-268) was < 10%, the inhibition of growth at 10 µM (SF-295) was < 10% and the inhibition of growth at 10 µM (SNB-19) was < 10%. The inhibition of growth at 10 µM (SNB-75) was < 10%, the inhibition of growth at 10 µM (U-251) was < 10% and the inhibition of growth at 10 µM (LOX IMVI) was 11.7%. For the same compound, the inhibition of growth at 10 µM (Malme-3M) was < 10%, the inhibition of growth at 10 µM (M14) was < 10% and the inhibition of growth at 10 µM (MDA-MB-435) was < 10%. For the same compound, the inhibition of growth at 10 µM (SK-MEL-28) was < 10%, the inhibition of growth at 10 µM (UACC-62) was 20.1% and the inhibition of growth at 10 µM (IGROV-1) was < 10%. For the same compound, the inhibition of growth at 10 µM (OVCAR-3) was < 10%, the inhibition of growth at 10 µM (OVCAR-4) was < 10% and the inhibition of growth at 10 µM (OVCAR-8) was < 10%. The inhibition of growth at 10 µM (NCI/ADR-RES) was < 10%, the inhibition of growth at 10 µM (SK-OV-3) was 10.1% and the inhibition of growth at 10 µM (786-0) was < 10%. The inhibition of growth at 10 µM (A498) was < 10%, the inhibition of growth at 10 µM (ACHN) was < 10% and the inhibition of growth at 10 µM (RXF 393) was < 10%. For the same compound, the inhibition of growth at 10 µM (SN12C) was < 10%, the inhibition of growth at 10 µM (UO-31) was 24.4% and the inhibition of growth at 10 µM (PC-3) was < 10%. For the same compound, the inhibition of growth at 10 µM (MCF7) was 23.8%, the inhibition of growth at 10 µM (MDA-MB-231) was 19.4% and the inhibition of growth at 10 µM (Hs-578T) was < 10%. The inhibition of growth at 10 µM (BT-549) was < 10%, the inhibition of growth at 10 µM (MDA-MB-468) was < 10% and the inhibition of growth at 10 µM (SW-620) was < 10%.
